Measured values from patent US10577349B2 (Sanford Burnham Prebys Medical Discovery Institute, priority 2015, dated 2020).

Tests used:
A375 = test: 48 h Cytotoxicity A375; assay type: cell-based; settings: Homo sapiens, A-375
[1] = target: EmCV Cap-dependent translation; test: In vitro translation assay, FF-EmCV-Ren construct, cap-dependent (FF luciferase); assay type: biochemical, rabbit reticulocyte lysates
Description: (§1) The bicistronic dual-reporter constructs that contain the firefly luciferase (FF) sequence, followed by the (encephalomyocarditis virus) EmCV and Hepatitis C virus (HCV) IRES, respectively, and the Renilla reniformis (Ren) luciferase sequence, has been previously described (Bordeleau Me., et al. Functional characterization of IRESes by an inhibitor of the RNA helicase eIF4A. Nature chemical biology. 2006; 2:213-20). For measurement of translation from the FF-EmCV-Ren and FF-HCV-Ren constructs, rabbit reticulocyte lysates (RRL) (Life Technologies, Carlsbad, Calif., USA) and the Dual-Glo (Promega, Madison, Wis., USA) read-outs were chosen. Two μl rabbit reticulocyte lysates mixed with Translation Mix 20× (-Met) and Translation Mix 20× (-Leu) in a ratio of 1:1 were pre-incubated with test compounds in 1536-well plates for 1 h at room temperature. Then, translation was started by adding 0.1 μg RNA per well and incubated for 2 h at 30° C. After a short chill phase, 2.5 μl Dual-Glo reagent 1 was added to each well and incubated for 10 min before reading the FF luciferase activity with the ViewLux uHTS Microplate Imager (Perkin Elmer, Waltham, Mass., USA). Directly after, 2.5 μl Dual-Glo reagent 2 was dispensed to each well and incubated at room temperature for 10 min before reading the Ren luciferase activity on the ViewLux. To exclude the possibility that test compounds interfere with any of the luciferase activities, a counter assay was performed in which the compounds were added after the completion of the in vitro translation.

[2] = target: EmCV Cap-independent translation; test: In vitro translation assay, FF-EmCV-Ren construct, cap-independent (Ren luciferase); assay type: biochemical, rabbit reticulocyte lysates
Description: as §1

[3] = target: HCV cap-dependent translation; test: In vitro translation assay, FF-HCV-Ren construct, cap-dependent (FF luciferase); assay type: biochemical, rabbit reticulocyte lysates
Description: as §1

[4] = target: HCV cap-independent translation; test: In vitro translation assay, FF-HCV-Ren construct, cap-independent (Ren luciferase); assay type: biochemical, rabbit reticulocyte lysates
Description: as §1

Row | SMILES | IC50 (A375) | IC50 [1] | IC50 [2] | IC50 [3] | IC50 [4]
1 | O=C(/C=C/c1nc2ccccc2n1Cc1ccccc1)c1c(-c2ccccc2)c2cc(Cl)ccc2n(Cc2ccccc2)c1=O [Compound 56, 1-benzyl-3-[3-(1-benzyl-1H-benzoimidazol-2-yl)-acryloyl]-6-chloro-4-phenyl-1H-quinolin-2-one] | 2 to 10 µM | 2 to 10 µM | > 20 µM | 10 to 20 µM | 2 to 10 µM
2 | COCCn1c(/C=C/C(=O)c2c(-c3ccccc3)c3cc(Cl)ccc3[nH]c2=O)nc2ccccc21 [Compound 57, 6-Chloro-3-{3-[1-(2-methoxy-ethyl)-1H-benzoimidazol-2-yl]-acryloyl}-4-phenyl-1H-quinolin-2-one] | 2 to 10 µM | 2 to 10 µM | 2 to 10 µM | 2 to 10 µM | 2 to 10 µM
3 | CCn1c(/C=C/C(=O)c2c(-c3ccccc3)c3cc(Cl)ccc3[nH]c2=O)nc2ccccc21 [Compound 58, 6-Chloro-3-[3-(1-ethyl-1H-benzoimidazol-2-yl)-acryloyl]-4-phenyl-1H-quinolin-2-one] | 2 to 10 µM | 2 to 10 µM | 2 to 10 µM | 2 to 10 µM | 2 to 10 µM
4 | Cn1c(/C=C/C(=O)c2c(-c3ccccc3)c3cc(Cl)ccc3n(C)c2=O)nc2ccccc21 [Compound 59, 6-Chloro-1-methyl-3-[3-(1-methyl-1H-benzoimidazol-2-yl)-acryloyl]-4-phenyl-1H-quinolin-2-one] | 2 to 10 µM | 2 to 10 µM | 2 to 10 µM | 2 to 10 µM | 2 to 10 µM
5 | CCn1c(/C=C/C(=O)c2c(-c3ccccc3)c3cc(Cl)ccc3n(CC)c2=O)nc2ccccc21 [Compound 60, (E)-6-chloro-1-ethyl-3-(3-(1-ethyl-1H-benzo[d]imidazol-2-yl)acryloyl)-4-phenylquinolin-2(1H)-one] | 2 to 10 µM | > 20 µM | > 20 µM | 10 to 20 µM | 10 to 20 µM
6 | O=C(/C=C/c1nc2cc(Cl)c(Cl)cc2[nH]1)c1c(-c2ccccc2)c2cc(Cl)ccc2[nH]c1=O [Compound 63, 6-Chloro-3-[3-(5,6-dichloro-1H-benzoimidazol-2-yl)-acryloyl]-4-phenyl-1H-quinolin-2-one] | 2 to 10 µM | 2 to 10 µM | 2 to 10 µM | 2 to 10 µM | 2 to 10 µM
7 | CCn1c(/C=C/C(=O)c2c(-c3ccccc3)c3cc(Cl)ccc3[nH]c2=O)nc2cc(Cl)c(Cl)cc21 [Compound 64, 6-Chloro-3-[3-(5,6-dichloro-1-ethyl-1H-benzoimidazol-2-yl)-acryloyl]-4-phenyl-1H-quinolin-2-one] | 2 to 10 µM | 2 to 10 µM | 10 to 20 µM | 10 to 20 µM | > 20 µM
8 | COc1ccc2[nH]c(/C=C/C(=O)c3c(-c4ccccc4)c4cc(Cl)ccc4[nH]c3=O)nc2c1 [Compound 65, 6-Chloro-3-[3-(5-methoxy-1H-benzoimidazol-2-yl)-acryloyl]-4-phenyl-1H-quinolin-2-one] | < 2 µM | 2 to 10 µM | 2 to 10 µM | 2 to 10 µM | 2 to 10 µM
9 | COc1cncc(/C=C/C(=O)c2c(-c3ccccc3)c3cc(Cl)ccc3[nH]c2=O)c1 [Compound 66, 3-[(2E)-3-(5-methoxy(3-pyridyl))prop-2-enoyl]-6-chloro-4-phenylhydroquinolin-2-one] | < 2 µM | 2 to 10 µM | 2 to 10 µM | 2 to 10 µM | 2 to 10 µM
10 | O=C(CCc1cncc(F)c1)c1c(-c2ccccc2)c2cc(Cl)ccc2[nH]c1=O [Compound 67, 6-Chloro-3-[3-(5-fluoro(3-pyridyl))propanoyl]-4-phenylhydroquinolin-2-one] | > 20 µM | > 20 µM | > 20 µM | > 20 µM | > 20 µM
11 | O=C(CCc1nc2ccccc2[nH]1)c1c(-c2ccccc2)c2cc(Cl)ccc2[nH]c1=O [Compound 68, 3-(3-1H-Benzoimidazol-2-yl-propionyl)-6-chloro-4-phenyl-1H-quinolin-2-one] | > 20 µM | > 20 µM | > 20 µM | > 20 µM | > 20 µM
12 | Cc1ccnc(/C=C/C(=O)c2c(-c3ccccc3)c3cc(Cl)ccc3[nH]c2=O)c1 [Compound 70, 3-[(2E)-3-(4-methyl(2-pyridyl))prop-2-enoyl]-6-chloro-4-phenylhydroquinolin-2-one] | 2 to 10 µM | 2 to 10 µM | 2 to 10 µM | 2 to 10 µM | 2 to 10 µM
13 | O=C(/C=C/c1cc(Cl)ccn1)c1c(-c2ccccc2)c2cc(Cl)ccc2[nH]c1=O [Compound 71, 3-[(2E)-3-(4-chloro(2-pyridyl))prop-2-enoyl]-6-chloro-4-phenylhydroquinolin-2-one] | 2 to 10 µM | > 20 µM | > 20 µM | 10 to 20 µM | > 20 µM
14 | N#Cc1cncc(/C=C/C(=O)c2c(-c3ccccc3)c3cc(Cl)ccc3[nH]c2=O)c1 [Compound 72, 5-[(1E)-3-(6-chloro-2-oxo-4-phenyl(3-hydroquinolyl))-3-oxoprop-1-enyl]pyridine-3-carbonitrile] | < 2 µM | 2 to 10 µM | 2 to 10 µM | 2 to 10 µM | 2 to 10 µM
15 | COCc1cncc(/C=C/C(=O)c2c(-c3ccccc3)c3cc(Cl)ccc3[nH]c2=O)c1 [Compound 73, 3-{(2E)-3-[5-(methoxymethyl)(3-pyridyl)]prop-2-enoyl}-6-chloro-4-phenylhydroquinolin-2-one] | < 2 µM | 2 to 10 µM | 2 to 10 µM | 2 to 10 µM | 2 to 10 µM
16 | Cc1cncc(/C=C/C(=O)c2c(-c3ccccc3)c3cc(Cl)ccc3[nH]c2=O)c1 [Compound 74, 3-[(2E)-3-(5-methyl(3-pyridyl))prop-2-enoyl]-6-chloro-4-phenylhydroquinolin-2-one] | < 2 µM | 2 to 10 µM | 2 to 10 µM | 2 to 10 µM | 2 to 10 µM
17 | COc1ccnc(/C=C/C(=O)c2c(-c3ccccc3)c3cc(Cl)ccc3[nH]c2=O)c1 [Compound 75, 3-[(2E)-3-(4-methoxy(2-pyridyl))prop-2-enoyl]-6-chloro-4-phenylhydroquinolin-2-one] | < 2 µM | 2 to 10 µM | 2 to 10 µM | 2 to 10 µM | 2 to 10 µM
18 | O=C(/C=C/c1cncc(C(F)(F)F)c1)c1c(-c2ccccc2)c2cc(Cl)ccc2[nH]c1=O [Compound 76, 3-{(2E)-3-[5-(trifluoromethyl)(3-pyridyl)]prop-2-enoyl}-6-chloro-4-phenylhydroquinolin-2-one] | < 2 µM | 2 to 10 µM | 2 to 10 µM | 2 to 10 µM | 2 to 10 µM
19 | O=C(/C=C/c1cncc(F)c1)c1c(-c2ccc(F)cc2)c2cc(Cl)ccc2[nH]c1=O [Compound 77, 3-[(2E)-3-(5-fluoro(3-pyridyl))prop-2-enoyl]-6-chloro-4-(4-fluorophenyl)hydroquinolin-2-one] | < 2 µM | 2 to 10 µM | 2 to 10 µM | 2 to 10 µM | 2 to 10 µM
20 | O=C(/C=C/c1ccccn1)c1c(-c2ccc(F)cc2)c2cc(Cl)ccc2[nH]c1=O [Compound 78, (E)-6-Chloro-4-(4-fluoro-phenyl)-3-(3-pyridin-2-yl-acryloyl)-1H-quinolin-2-one] | < 2 µM | 2 to 10 µM | 2 to 10 µM | 2 to 10 µM | 2 to 10 µM
21 | COc1ccc(-c2c(C(=O)/C=C/c3cncc(F)c3)c(=O)[nH]c3ccc(Cl)cc23)cc1 [Compound 79, 3-[(2E)-3-(5-fluoro(3-pyridyl))prop-2-enoyl]-6-chloro-4-(4-methoxyphenyl)hydroquinolin-2-one] | < 2 µM | 2 to 10 µM | 2 to 10 µM | 2 to 10 µM | 2 to 10 µM
22 | COc1ccc(-c2c(C(=O)/C=C/c3ccccn3)c(=O)[nH]c3ccc(Cl)cc23)cc1 [Compound 80, 3-((2E)-3-(2-pyridyl)prop-2-enoyl)-6-chloro-4-(4-methoxyphenyl)hydroquinolin-2-one] | 2 to 10 µM | 2 to 10 µM | 2 to 10 µM | 10 to 20 µM | 2 to 10 µM
23 | O=C(/C=C/c1cncc(F)c1)c1c(-c2ccc(Cl)cc2)c2cc(Cl)ccc2[nH]c1=O [Compound 81, 3-[(2E)-3-(5-fluoro(3-pyridyl))prop-2-enoyl]-6-chloro-4-(4-chlorophenyl)hydroquinolin-2-one] | 2 to 10 µM | 2 to 10 µM | 2 to 10 µM | 2 to 10 µM | 2 to 10 µM
24 | O=C(/C=C/c1ccccn1)c1c(-c2ccc(Cl)cc2)c2cc(Cl)ccc2[nH]c1=O [Compound 82, 3-((2E)-3-(2-pyridyl)prop-2-enoyl)-6-chloro-4-(4-chlorophenyl)hydroquinolin-2-one] | 2 to 10 µM | 2 to 10 µM | 2 to 10 µM | 2 to 10 µM | 2 to 10 µM
